Results reported in patent EP2762468A1, “2-aminopyridine derivatives as plant growth regulating compounds” (Syngenta Participations AG, priority 2013, dated 2014).

Tests used:
[1] = tested on: French beans (Phaseolus vulgaris) of the variety Fulvio; assay: Bean assay: elongation of the petiole of the second leaf; type: in vivo; conditions: five micro litres of test compound pipetted to the wound at the base of the second internode; measured fourteen days after application
Description: (§1) Two bioassays were developed in order to assay the activity of the compounds of the present invention. In the first assay, the activity of the compound was quantified in beans based on its effect on the elongation of the petiole of the second leaf. In the second assay, the compound's effect on the root growth of wheat was determined.
French beans (Phaseolus vulgaris) of the variety Fulvio were sown in 0.5 litres pots in a sandy loam without additional fertilizer. Plants grew under greenhouse conditions at 22/18°C (day/night) and 80% relative humility; light was supplemented […] 25 kLux. Plants were treated with test compounds eleven days after sowing, when the second internode was 2-5 mm long. Before application, the compounds were each dissolved in dimethyl sulfoxide and diluted in a mixture of lanolin-oil and acetone (1:2 ratio by volume). Five micro litres of the test compound was pipetted to the wound that was created after abscising the bract leaf from the base of the second internode. Fourteen days after application, the length of the petiole of the second leaf (measured from the base of the petiole to the base of the first leaflet) was determined in order to quantify the activity of the compounds.

[2] = molecular target: T1, Arabidopsis BIN2 kinase (Uniprot Q39011) (Arabidopsis thaliana, UniProt Q39011); assay: In vitro assay for inhibition of plant GSK3/Shaggy-like kinase activity (ADP-Glo); type: biochemical; conditions: compounds at 5 µM; 5 µM ATP; myelin basic protein substrate; 1 h at 20°C; triplicate; read-out: inhibited the activity of His6-BIN2 relative to the solvent vehicle control
T1 construct: made in house; host or cells: E. coli BL21
T1 sequence (Q39011 1-380): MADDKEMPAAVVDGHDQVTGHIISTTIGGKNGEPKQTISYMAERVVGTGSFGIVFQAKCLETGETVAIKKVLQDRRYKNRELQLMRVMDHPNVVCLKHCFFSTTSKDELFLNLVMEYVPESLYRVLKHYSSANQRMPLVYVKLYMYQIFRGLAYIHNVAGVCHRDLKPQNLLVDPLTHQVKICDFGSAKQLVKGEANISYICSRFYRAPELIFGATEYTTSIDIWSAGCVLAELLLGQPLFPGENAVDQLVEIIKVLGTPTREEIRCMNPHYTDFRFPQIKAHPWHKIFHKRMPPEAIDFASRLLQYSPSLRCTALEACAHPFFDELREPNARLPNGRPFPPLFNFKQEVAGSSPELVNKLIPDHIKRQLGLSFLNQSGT
Description: Arabidopsis BIN2 kinase (Uniprot Q39011) was produced in E.coli BL21 as an N-terminal hexahistidine fusion protein. In vitro kinase assays were performed by incubating 50 ng His6-BIN2 protein with 5 µg myelin basic protein (Sigma-Aldrich) as substrate and 5 µM ATP as co-substrate in reaction buffer consisting of 40 mM Tris-HCl, 20 mM MgCl2 and 0.1mg/mL bovine serum albumin in a final reaction volume of 50 µl. Enzyme activity was assessed in the absence and presence of compounds (described in Tables A and B) at 5 µM by measuring the level of ADP produced after incubation for 1 h at 20°C using an enzyme-coupled bioluminescent assay (ADP-Glo, Promega Corp.). The experiment was performed in triplicate.

[3] = tested on: Wheat (Triticum aestivum) seeds of the variety Arina; assay: Wheat assay: plant (root and shoot) area and curliness of the roots; type: in vivo; conditions: seeds sown in pouches with compound solution; twelve days after sowing/application
Description: as §1
The test compounds were dissolved in small volumes of dimethyl sulfoxide and diluted to the appropriate concentration with water. Wheat (Triticum aestivum) seeds of the variety Arina were sown in pouches (14.7 × 13.2 cm) containing 10 mL of the appropriate compound solution. The pouches were stored at 17 °C for three days to enable the seeds to germinate. Plants were then stored at 5°C. Twelve days after sowing/application, plants were removed from the pouches and scanned. The effect of the compounds was quantified by determining plant (root and shoot) area and curliness of the roots (curliness is an indicator of brassinosteroid-type activity).

inhibition at 5 µM [2] [%] | SMILES | increase of the length of the petiole of the second leaf [1] [%] | curliness of the roots (indicator of brassinosteroid-type activity) [3] | reduction of the plant (root and shoot) area [3] [%]
≥ 20 | COC(=O)CCC(=O)Nc1cc(Cl)ccn1 [Compound A1, methyl 4-[(4-chloro-2-pyridyl)amino]-4-oxo-butanoate] | ≥ 10 |  | 
≥ 20 | COC(=O)CCC(=O)Nc1cc(C(F)(F)F)ccn1 [Compound A2] |  |  | 
≥ 20 | COC(=O)CCC(=O)Nc1cc(C#N)ccn1 [Compound A3, methyl 4-[(4-cyano-2-pyridyl)amino]-4-oxo-butanoate] |  |  | 
≥ 20 | COC(=O)CCC(=O)Nc1cc([N+](=O)[O-])ccn1 [Compound A5] |  |  | 
≥ 20 | COC(=O)CCC(=O)Nc1cc(I)ccn1 [Compound A6] |  |  | 
≥ 20 | N#Cc1ccnc(NC(=O)CCC(=O)O)c1 [Compound A7, 4-[(4-cyano-2-pyridyl)amino]-4-oxo-butanoic acid] |  |  | 
≥ 20 | O=C(O)CCC(=O)Nc1cc(C(F)(F)F)ccn1 [Compound A8] |  |  | 
≥ 20 | COC(=O)CCC(=O)Nc1cc(Br)ccn1 [Compound A9] |  |  | 
≥ 20 | O=C1CCC(=O)N1c1cc(C(F)(F)F)ccn1 [Compound B1, 1-[4-(trifluoromethyl)-2-pyridyl]pyrrolidine-2,5-dione] | ≥ 10 | curly root phenotype | ≥ 5
